# In patent publication US12043613B2, “Inhibitors of SARM1” (Disarm Therapeutics, Inc., priority 2020, dated 2024):
# Biological target: T1, SARM1 (ARM-SAM-TIR, full length SARM1) (Homo sapiens, UniProt Q6SZW1)
# T1 sequence (Q6SZW1 with tags, fused parts or gaps): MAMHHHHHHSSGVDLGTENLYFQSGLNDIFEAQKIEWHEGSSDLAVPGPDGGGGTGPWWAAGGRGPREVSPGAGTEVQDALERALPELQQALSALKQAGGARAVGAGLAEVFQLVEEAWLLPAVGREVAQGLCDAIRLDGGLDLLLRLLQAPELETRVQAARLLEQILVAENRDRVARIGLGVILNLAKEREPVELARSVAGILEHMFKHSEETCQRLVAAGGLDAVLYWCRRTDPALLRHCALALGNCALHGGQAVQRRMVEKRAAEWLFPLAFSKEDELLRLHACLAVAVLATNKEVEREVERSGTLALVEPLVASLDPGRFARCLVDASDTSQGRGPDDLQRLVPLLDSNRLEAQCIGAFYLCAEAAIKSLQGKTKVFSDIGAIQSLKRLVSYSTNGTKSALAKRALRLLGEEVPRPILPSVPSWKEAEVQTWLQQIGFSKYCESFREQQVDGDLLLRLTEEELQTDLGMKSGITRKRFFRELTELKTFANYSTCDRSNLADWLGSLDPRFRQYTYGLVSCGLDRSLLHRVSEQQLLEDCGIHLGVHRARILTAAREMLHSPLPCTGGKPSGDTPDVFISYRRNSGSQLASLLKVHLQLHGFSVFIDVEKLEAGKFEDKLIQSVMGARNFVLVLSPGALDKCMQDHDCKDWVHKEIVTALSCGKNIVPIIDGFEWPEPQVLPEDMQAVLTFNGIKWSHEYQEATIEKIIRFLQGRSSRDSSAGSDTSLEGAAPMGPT
# Assay: biochemical
# Conditions: SARM1 IC50 (nM), ARM-SAM-TIR lysate 5 μg/mL from NRK1-HEK293T cells, 2 h pre-incubation, 5 uM NAD+, 2 hr room temperature
# Procedure: This assay makes use of full length SARM1, which encompasses the ARM, SAM and TIR domains.
# Preparation of ARM-SAM-TIR lysate (STL)
# NRK1-HEK293T cells were seeded onto 150 cm^2 plates at 20×10^6 cells per plate. The next day, the cells were transfected with 15 g ARM-SAM-TIR expression plasmid, SEQ ID NO: 1.
# The cultures were supplemented with 1 mM NR at time of transfection to minimize toxicity from ARM-SAM-TIR overexpression. Forty-eight hours after transfection, cells were harvested, pelleted by centrifugation at 1,000 rpm (Sorvall ST 16R centrifuge, Thermo Fisher), and washed once with cold PBS (0.01 M phosphate buffered saline NaCl 0.138 M; KCl 0.0027 M; pH 7.4). The cells were resuspended in PBS with protease inhibitors (cOmplete™ protease inhibitor cocktail, Roche product #11873580001) and cell lysates were prepared by sonication (Branson Sonifer 450, output=3, 20 episodes of stroke). The lysates were centrifuged (12,000×g for 10 min at 4° C.) to remove cell debris and the supernatants (containing ARM-SAM-TIR protein) were stored at −80° C. for later use in the in vitro ARM-SAM-TIR NADase assay (see below). Protein concentration was determined by the Bicinchoninic (BCA) method and used to normalize lysate concentrations.
# ARM-SAM-TIR IC50 assay of Formula I compounds.
# The enzymatic assay was performed in a 384-well polypropylene plate in Dulbecco's PBS buffer in a final assay volume of 20 μL. ARM-SAM-TIR lysate with a final concentration of 5 μg/mL was pre-incubated with the respective compound at 1% DMSO final assay concentration over 2h at room temperature. The reaction was initiated by addition of 5 uM final assay concentration of NAD+ as substrate. After a 2 hr room temperature incubation, the reaction was terminated with 40 μL of stop solution of 7.5% trichloroactetic acid in acetonitrile. The NAD+ and ADPR concentrations were analyzed by a RapidFire High Throughput Mass Spectrometry System (Agilent Technologies, Santa Clara, Calif.) using an API4000 triple quadrupole mass spectrometer (AB Sciex Framingham, Mass.).
row,IC50,Compound
1,101 to 500 nM,Cc1c(-c2ccncc2)n[nH]c1N1CCC(Cc2cnc(Cl)c(F)c2)C1=O (stereo not shown) [Compound I-41]
2,> 1000 nM,O=C1N(c2nc(-c3ccncc3)n[nH]2)CCC1(F)Cc1ccc(Cl)nc1 (stereo not shown) [Compound I-42]
3,> 1000 nM,CC1(Cc2ccc(F)c(F)c2)CCN(c2nc(-c3ccncc3)n[nH]2)C1=O (stereo not shown) [Compound I-43]
4,< 50 nM,O=C1C(Cc2ccc(Cl)cc2)OCCN1c1nnc(-c2ccncc2)[nH]1 (stereo not shown) [Compound I-44]
5,501 to 1000 nM,CC1(Cc2ccc(Cl)cc2)CCN(c2nc(-c3ccncc3)n[nH]2)C1=O (stereo not shown) [Compound I-45]
6,51 to 100 nM,O=C1C(Cc2ccc(Cl)cc2)OCCN1c1cc(-c2ccncc2)n[nH]1 (stereo not shown) [Compound I-47]
7,101 to 500 nM,Cc1c(-c2ccncc2)n[nH]c1N1CCC(Cc2ccc(Cl)nc2)C1=O (stereo not shown) [Compound I-48]
8,51 to 100 nM,Cc1c(-c2ccncc2)n[nH]c1N1CCC(Cc2ccc(F)c(F)c2)C1=O (stereo not shown) [Compound I-49]
9,> 1000 nM,Cc1c(-c2ccncc2)n[nH]c1N1CCCC(Cc2ccc(Cl)cc2)C1=O (stereo not shown) [Compound I-50]
10,51 to 100 nM,N#Cc1c(-c2ccncc2)n[nH]c1N1CCC(Cc2ccc(Cl)nc2)C1=O (stereo not shown) [Compound I-51]
11,< 50 nM,N#Cc1c(-c2ccncc2)n[nH]c1N1CCC(Cc2ccc(Cl)cc2)C1=O (stereo not shown) [Compound I-52]
12,51 to 100 nM,N#Cc1c(-c2ccncc2)n[nH]c1N1CCC(Cc2ccc(F)c(F)c2)C1=O (stereo not shown) [Compound I-53]
13,101 to 500 nM,CC1(Cc2ccc(Cl)cc2)CCCN(c2nc(-c3ccncc3)n[nH]2)C1=O (stereo not shown) [Compound I-54]
14,51 to 100 nM,O=C1C(Cc2ccc(Cl)nc2)CCCN1c1nnc(-c2ccncc2)[nH]1 (stereo not shown) [Compound I-55]
15,101 to 500 nM,N#Cc1c(-c2ccncc2)n[nH]c1N1CCCC(Cc2ccc(Cl)cc2)C1=O (stereo not shown) [Compound I-56]
16,101 to 500 nM,O=C1C(Cc2ccc(Cl)nc2)OCCN1c1nnc(-c2ccncc2)[nH]1 (stereo not shown) [Compound I-58]
17,101 to 500 nM,O=C1C(Cc2ccc(Cl)cc2)NCN1c1cc(-c2ccncc2)n[nH]1 (stereo not shown) [Compound I-59]
18,501 to 1000 nM,N[C@H]1CC(Cc2ccc(Cl)nc2)C(=O)N(c2cc(-c3ccncc3)n[nH]2)C1 (stereo partly shown) [Compound I-60]
19,501 to 1000 nM,CC1(Cc2ccc(Cl)nc2)CCCN(c2nnc(-c3ccncc3)[nH]2)C1=O (stereo not shown) [Compound I-63]
20,> 1000 nM,O=C1C(Cc2ccc(Cl)nc2)CNCN1c1cc(-c2ccncc2)n[nH]1 (stereo not shown) [Compound I-64]

row,IC50,Compound
1,< 50 nM,O=C1C(Cc2cnc(Cl)c(F)c2)CCN1c1cc(-c2ccncc2)n[nH]1 (stereo not shown) [Compound I-65]
2,< 50 nM,O=C1C(Cc2cnc(Cl)c(F)c2)CCCN1c1cc(-c2ccncc2)n[nH]1 (stereo not shown) [Compound I-66]
3,< 50 nM,O=C1C(Cc2ccc(F)nc2)CCN1c1cc(-c2ccncc2)n[nH]1 (stereo not shown) [Compound I-67]
4,101 to 500 nM,N#Cc1c(-c2ccncc2)n[nH]c1N1CCCC(Cc2ccc(Cl)nc2)C1=O (stereo not shown) [Compound I-68]
5,51 to 100 nM,[2H]C1(Cc2ccc(F)nc2)C(=O)N(c2cc(-c3ccncc3)n[nH]2)C([2H])([2H])C([2H])([2H])C1([2H])[2H] (stereo not shown) [Compound I-70]
6,< 50 nM,[2H]C([2H])(c1ccc(Cl)nc1)C1([2H])C(=O)N(c2cc(-c3ccncc3)n[nH]2)C([2H])([2H])C([2H])([2H])C1([2H])[2H] (stereo not shown) [Compound I-79]
7,101 to 500 nM,N#Cc1ccc(CC2CCCN(c3cc(-c4ccncc4)n[nH]3)C2=O)cn1 (stereo not shown) [Compound I-94]
8,101 to 500 nM,O=C1C(Cc2ccc(C(F)(F)F)nc2)CCCN1c1cc(-c2ccncc2)n[nH]1 (stereo not shown) [Compound I-96]
9,101 to 500 nM,O=C1C(Cc2ccc(C(F)(F)F)nc2)CCCN1c1nc(-c2ccncc2)n[nH]1 (stereo not shown) [Compound I-97]
10,< 50 nM,N#Cc1ccc(CC2CCCN(c3cc(-c4ccncc4)n[nH]3)C2=O)cc1 (stereo not shown) [Compound I-98]
11,101 to 500 nM,N#Cc1ccc(CC2CCCN(c3nc(-c4ccncc4)n[nH]3)C2=O)cc1 (stereo not shown) [Compound I-99]
12,< 50 nM,N#Cc1cc(CC2CCCN(c3cc(-c4ccncc4)n[nH]3)C2=O)ccc1F (stereo not shown) [Compound I-100]
13,101 to 500 nM,N#Cc1cc(CC2CCCN(c3nc(-c4ccncc4)n[nH]3)C2=O)ccc1F (stereo not shown) [Compound I-101]
14,51 to 100 nM,N#Cc1cc(CC2CCCN(c3cc(-c4ccncc4)n[nH]3)C2=O)ccc1Cl (stereo not shown) [Compound I-102]
15,101 to 500 nM,N#Cc1cc(CC2CCCN(c3nc(-c4ccncc4)n[nH]3)C2=O)ccc1Cl (stereo not shown) [Compound I-103]
16,> 1000 nM,N#Cc1ccc(CC2CCN(c3nc(-c4ccncc4)n[nH]3)C2=O)cn1 (stereo not shown) [Compound I-111]
17,101 to 500 nM,O=C1C(Cc2ccc(C(F)(F)F)nc2)CCN1c1cc(-c2ccncc2)n[nH]1 (stereo not shown) [Compound I-112]
18,101 to 500 nM,N#Cc1ccc(CC2CCN(c3cc(-c4ccncc4)n[nH]3)C2=O)cc1 (stereo not shown) [Compound I-114]
19,501 to 1000 nM,N#Cc1ccc(CC2CCN(c3nc(-c4ccncc4)n[nH]3)C2=O)cc1 (stereo not shown) [Compound I-115]

# Continued, compound first:
row,Compound,IC50
1,O=C1C(Cc2ccc(F)cc2)CCN1c1nnc(-c2ccncc2)[nH]1 (stereo not shown) [Compound I-7],101 to 500 nM
2,O=C1C(Cc2ccc(Cl)c(F)c2)CCN1c1nnc(-c2ccncc2)[nH]1 (stereo not shown) [Compound I-8],< 50 nM
3,O=C1C(Cc2ccc(Cl)nc2)CCN1c1nnc(-c2ccncc2)[nH]1 (stereo not shown) [Compound I-9],101 to 500 nM
4,O=C1C(Cc2ccc(Cl)c(F)c2)CCCN1c1nnc(-c2ccncc2)[nH]1 (stereo not shown) [Compound I-10],< 50 nM
5,O=C1C(Cc2ccc(F)c(F)c2)CCN1c1nnc(-c2ccncc2)[nH]1 (stereo not shown) [Compound I-11],< 50 nM
6,O=C1N(c2nnc(-c3ccncc3)[nH]2)CCC1(Cc1ccc(F)c(F)c1)Cc1ccc(F)c(F)c1 [Compound I-12],> 1000 nM
7,O=C1C(Cc2ccc(F)c(F)c2)CCCN1c1nnc(-c2ccncc2)[nH]1 (stereo not shown) [Compound I-13],< 50 nM
8,O=C1C(Cc2ccc(Cl)c(F)c2)CCN1c1cc(-c2ccncc2)n[nH]1 (stereo not shown) [Compound I-14],< 50 nM
9,O=C1C(Cc2ccc(Cl)cc2)CCN1c1cc(-c2ccncc2)n[nH]1 (stereo not shown) [Compound I-15],< 50 nM
10,O=C1C(Cc2ccc(F)c(F)c2)CCN1c1cc(-c2ccncc2)n[nH]1 (stereo not shown) [Compound I-16],< 50 nM
11,O=C1C(Cc2ccc(Cl)nc2)CCN1c1cc(-c2ccncc2)n[nH]1 (stereo not shown) [Compound I-17],< 50 nM
12,O=C1C(Cc2cnc(Cl)c(F)c2)CCN1c1nnc(-c2ccncc2)[nH]1 (stereo not shown) [Compound I-18],51 to 100 nM
13,O=C1C(Cc2ccc(Cl)cc2)CCCN1c1cc(-c2ccncc2)n[nH]1 (stereo not shown) [Compound I-19],< 50 nM
14,O=C1C(Cc2ccc(Cl)c(F)c2)CCCN1c1cc(-c2ccncc2)n[nH]1 (stereo not shown) [Compound I-20],< 50 nM
15,O=C1C(Cc2ccc(Cl)nc2)CCCN1c1cc(-c2ccncc2)n[nH]1 (stereo not shown) [Compound I-21],< 50 nM
16,O=C1C(Cc2ccc(F)c(F)c2)CCCN1c1cc(-c2ccncc2)n[nH]1 (stereo not shown) [Compound I-22],< 50 nM
17,O=C1C(Cc2ccc(F)nc2)CCCN1c1nnc(-c2ccncc2)[nH]1 (stereo not shown) [Compound I-23],< 50 nM

row,Compound,IC50
1,O=C1C(Cc2cnc(Cl)c(F)c2)CCCN1c1nnc(-c2ccncc2)[nH]1 (stereo not shown) [Compound I-24],< 50 nM
2,N#Cc1ccc(CC2CCN(c3[nH]nc(-c4ccncc4)c3F)C2=O)cc1F (stereo not shown) [Compound I-25],101 to 500 nM
3,N#Cc1ccc(CC2CCN(c3nnc(-c4ccncc4)[nH]3)C2=O)cc1F (stereo not shown) [Compound I-26],101 to 500 nM
4,O=C1C(Cc2ccc(F)nc2)CCCN1c1[nH]nc(-c2ccncc2)c1F (stereo not shown) [Compound I-27],101 to 500 nM
5,O=C1C(Cc2ccc(F)nc2)CCCN1c1[nH]nc(-c2ccncc2)c1Cl (stereo not shown) [Compound I-28],> 1000 nM
6,O=C1C(Cc2ccc(Cl)nc2)CCCN1c1[nH]nc(-c2ccncc2)c1Cl (stereo not shown) [Compound I-29],> 1000 nM
7,O=C1C(Cc2ccc(Cl)nc2)CNN1c1cc(-c2ccncc2)n[nH]1 (stereo not shown) [Compound I-30],> 1000 nM
8,O=C1C(Cc2ccc(Cl)nc2)CCCN1c1[nH]nc(-c2ccncc2)c1F (stereo not shown) [Compound I-31],101 to 500 nM
9,O=C1C(Cc2ccc(F)nc2)CCN1c1[nH]nc(-c2ccncc2)c1Cl (stereo not shown) [Compound I-32],< 50 nM
10,O=C1C(Cc2ccc(F)nc2)CCN1c1[nH]nc(-c2ccncc2)c1F (stereo not shown) [Compound I-33],< 50 nM
11,O=C1C(Cc2ccc(Cl)nc2)CCN1c1[nH]nc(-c2ccncc2)c1Cl (stereo not shown) [Compound I-34],< 50 nM
12,O=C1C(Cc2ccc(Cl)nc2)NCN1c1cc(-c2ccncc2)n[nH]1 (stereo not shown) [Compound I-35],501 to 1000 nM
13,O=C1C(Cc2ccc(Cl)nc2)CCN1c1[nH]nc(-c2ccncc2)c1F (stereo not shown) [Compound I-36],< 50 nM
14,N#Cc1ccc(CC2CCN(c3cc(-c4ccncc4)n[nH]3)C2=O)cc1F (stereo not shown) [Compound I-37],51 to 100 nM
15,O=C1C(Cc2ccc(Cl)cc2)CNCCN1c1nc(-c2ccncc2)n[nH]1 (stereo not shown) [Compound I-38],501 to 1000 nM
16,O=C1C(Cc2ccc(F)nc2)CCN1c1nnc(-c2ccncc2)[nH]1 (stereo not shown) [Compound I-39],101 to 500 nM
17,O=C1C(Cc2ccc(Cl)nc2)CCCCN1c1cc(-c2ccncc2)n[nH]1 (stereo not shown) [Compound I-40],101 to 500 nM
